The values below come from paper PMC11783601, “Analogue-Sensitive Inhibition of Histone Demethylases Uncovers Member-Specific Function in Ribosomal Protein Synthesis” (Journal of the American Chemical Society, 2025).

The test system of test [1] is nascent protein synthesis in HEK293T cells. Kind of test: BONCAT: confocal imaging of TAMRA alkyne ligated nascent proteins in fixed cells. In kind it is cell-based, human. The protocol:
To visualize the nascent proteins in intact cells, we performed click ligation on fixed cells with TAMRA alkyne, followed by confocal imaging. Treatment with AHA led to a robust fluorescence signal primarily in the cytoplasm compared to untreated cells indicating cytoplasmic protein synthesis (Figure 5D,E). […]
and 6 ug of Thermo Turbofect (FERR0531). KDM4A siRNA was transfected into cells using 10nM siRNA (Thermo 4392420) with 1:2 ug amount of Thermo Turbofect (FERR0531). Cells were washed 4 hours later and fresh DMEM was applied. The next day, the cells were treated with inhibitor (L-leucine NOG) and grown for 24 hours. […] The lysate was quantified with Bradford dye and 40 ug of lysate was incubated with 1 mM Tris[(1-benzyl-1H-1,2,3-triazol-4-yl)methyl]amine (TBTA […]
For analysis of AHA incorporation measured by fixed cell imaging, HEK293-T cells (ATCC CRL-1573) were grown in a 24 well plate (Corning) on poly-D-lysine (Gibco A3890401) treated glass coverslips (ThermoScientific 12-545-81P) overnight and transfected the next day with 500 ng KDM4A WT/F185A or Empty Vector (EV) equivalent using 1:2 ug of Thermo Turbofect (FERR0531). […]
(Sigma B2883-25MG) for 30 seconds, washed with PBS and finally adhered to a slide with gelvatol. […] Images were analyzed on ImageJ open-source software and NIS elements software. […]

A further test concerns the target T1, NO66 (Homo sapiens, UniProt Q9H6W3).
T1 construct: we recombinantly expressed the catalytic domains of 12 wild type dioxygenases; Tev His Flag (C); host or cells: E. coli BL21 (DE3)
Kind of test: MALDI-based assay for C14orf169 (NO66) histidyl hydroxylation of peptide. In kind it is biochemical. As to conditions: MALDI-TOF, peptide substrate. The protocol:
MALDI-based assay for C14orf169 (NO66) and MINA: To monitor the enzymatic activity of
C14orf169 and MINA recombinant proteins, previous methods were utilized.10-11 Briefly, 10 µM
each recombinant protein was incubated with 10 µM peptide substrate (NH2-
Ascorbic Acid, 100 µM Iron (II), 50mM HEPES pH 7.5, and 200 µM L-Leu NOG or equivalent
volume of water in 10 µL water. Aliquots were kept on ice for 10 minutes before addition of 200
µM 2OG or equivalent volume of water. After 30-60 minutes incubation at 37 °C, 1 µL sample and
1 µL S-DHB matrix were spotted on a MALDI plate and monitored with Bruker FlexControl in
the reflectron positive mode and analyzed on Bruker FlexAnalysis software. […]

Another test deals with T2, KDM8 (JMJD5) (Homo sapiens, UniProt Q8N371).
T2 construct: we recombinantly expressed the catalytic domains of 12 wild type dioxygenases; made in house
Kind of test: MALDI-TOF assay for JMJD5 arginine hydroxylation of peptide. The format is biochemical. Conditions: peptide substrate.

T2 sequence (Q8N371 271-416 limits assumed): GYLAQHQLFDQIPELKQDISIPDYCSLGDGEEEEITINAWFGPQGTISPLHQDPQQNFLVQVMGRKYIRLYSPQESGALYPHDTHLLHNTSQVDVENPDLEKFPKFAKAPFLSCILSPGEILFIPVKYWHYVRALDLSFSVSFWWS
T1 sequence (Q9H6W3 294-439 limits assumed): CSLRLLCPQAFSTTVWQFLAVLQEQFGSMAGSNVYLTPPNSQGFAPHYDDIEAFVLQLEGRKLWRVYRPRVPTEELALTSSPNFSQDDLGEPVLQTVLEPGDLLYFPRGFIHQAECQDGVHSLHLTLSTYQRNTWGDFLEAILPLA

With `CCCCCCCCOC(=O)C(=O)NC(CC(C)C)C(=O)O` [6A, L-Leu octyl-ester NOG], in test [1] (fixed HEK293T cells overexpressing F185A, to the level of cells expressing control vector), the “TAMRA signal of nascent proteins (confocal imaging)” value is recorded as “subsequently inhibited”.
In the case of `CC(C)CC(NC(=O)C(=O)O)C(=O)O` (stereo not shown) [compound 6, N-oxalyl leucine], on NO66, the “inhibition of NO66” value is on record as “No inhibition”. Also, the “inhibition of JMJD5” value against KDM8 (JMJD5) was “No inhibition”.
Take `CCCCCCCCOC(=O)c1ccc(O)c2ncccc12` [n-octyl IOX1]: the “TAMRA signal of nascent proteins (confocal imaging)” value in test [1] (fixed HEK293T cells, endogenous KDM4A, compared with KDM4A silencing) is listed as “phenocopied”.
